Source: the supplement of paper PMC6965134
± gives the standard deviation of the averaged measurements.

Experiment: TIMS collisional cross section (CCS, N2) of the lipid ion; higher = larger ion cross section
Conditions: ionization mode: positive, one isomer drawn

CC/C=C\C/C=C\C/C=C\C/C=C\C/C=C\C/C=C\CCC(=O)OC[C@@H](O)COP(=O)(O)OCCN [LPE 22:6] (ion (formula + adduct): [C27H44NO7P+H] 1+)
TIMS collisional cross section (sample type: HeLa): 218.95 ± 0.071 Å² | TIMS collisional cross section (sample type: Liver): 218 Å² | TIMS collisional cross section (sample type: plasma): 218.3 ± 0.85 Å²

CCCCCCCCCCCCC/C=C/[C@@H](O)[C@H](CO)NC(=O)CCCCCCCCCCCCCCCCCCCCCC [Cer d18:1_23:0@] (ion (formula + adduct): [C41H81NO3+H] 1+)
TIMS collisional cross section (sample type: HeLa): 276.9 Å² | TIMS collisional cross section (sample type: Liver): 277.5 Å²

CCCCCCCCCCCCCCCC(=O)OC[C@@H](COC(=O)CCCCCCCCCCCCC)OC(=O)CCCCCCCCCCCCCCC [TG 14:0_16:0_16:0] (ion (formula + adduct): [C49H94O6+NH4] 1+)
TIMS collisional cross section (sample type: HeLa): 308.5 Å² | TIMS collisional cross section (sample type: Liver): 308.4 Å² | TIMS collisional cross section (sample type: plasma): 308.1 ± 0.22 Å²

CCCCC/C=C\C/C=C\C/C=C\C/C=C\CCCC(=O)O[C@H](COC(=O)CCCC/C=C\C/C=C\C/C=C\CCCCC)COP(=O)([O-])OCC[N+](C)(C)C [PC 18:3@_20:4] (ion (formula + adduct): [C46H78NO8P+H] 1+)
TIMS collisional cross section (sample type: plasma): 292.8 Å²

CCCCC/C=C\C[C@H](O)/C=C/C=C\C/C=C\CCCC(=O)O[C@H](COC(=O)CCCCCCCCCCCCCCC)COP(=O)([O-])OCC[N+](C)(C)C [Oxidized PC 16:0_20:4@] (ion (formula + adduct): [C44H80NO9P+H] 1+)
TIMS collisional cross section (sample type: Liver): 290.3 Å²

CC(C)CCC[C@@H](C)[C@H]1CC[C@H]2C3=CC[C@H]4[C@](C)(C=O)[C@@H](O)CC[C@]4(C)[C@H]3CC[C@]12C (ion (formula + adduct): [C29H48O2+H] 1+)
TIMS collisional cross section (sample type: plasma): 219.5 Å²

CCCCC/C=C\C/C=C\C/C=C\C/C=C\CCCC(=O)O[C@H](COC(=O)CCCCCCC/C=C\CCCCCC)COP(=O)([O-])OCC[N+](C)(C)C [PC 16:1_20:4] (ion (formula + adduct): [C44H78NO8P+H] 1+)
TIMS collisional cross section (sample type: HeLa): 285.8 Å² | TIMS collisional cross section (sample type: plasma): 286.4 Å²

CCCCCC/C=C/CCCCCCCC(=O)OC[C@@H](O)COP(=O)([O-])OCC[N+](C)(C)C [LPC 16:1_0:0] (ion (formula + adduct): [C24H48NO7P+H] 1+)
TIMS collisional cross section (sample type: plasma): 225.77 ± 1.4 Å²

CCCCC/C=C\C/C=C\CCCCCCCC(=O)O[C@H](CO/C=C\CCCCCCCCCCCCCC)COP(=O)(O)OCCN [PE P- 16:0@_18:2] (ion (formula + adduct): [C39H74NO7P+H] 1+)
TIMS collisional cross section (sample type: HeLa): 270.7 Å² | TIMS collisional cross section (sample type: Liver): 270.5 Å² | TIMS collisional cross section (sample type: plasma): 270.6 Å²

CCCCC/C=C\C/C=C\C/C=C\C/C=C\CCCC(=O)OC[C@H](COP(=O)(O)OCCN)OC(=O)CCCCCCC/C=C\CCCCCC [PE 20:4_16:1] (ion (formula + adduct): [C41H72NO8P+H] 1+)
TIMS collisional cross section (sample type: HeLa): 272.4 Å² | TIMS collisional cross section (sample type: Liver): 272.6 Å²

CCCCC/C=C\C/C=C\C/C=C\CCCCCCC(=O)O[C@H](COC(=O)CCCC/C=C\C/C=C\C/C=C\CCCCC)COP(=O)([O-])OCC[N+](C)(C)C [PC 18:3_20:3@] (ion (formula + adduct): [C46H80NO8P+H] 1+)
TIMS collisional cross section (sample type: Liver): 293.2 Å²

CCCCCCCC/C=C\CCCCCCCC(=O)O[C@H](COC(=O)CCCCCCCCCCCCCCCCC)COP(=O)(O)OCCN [PE 18:0@_18:1] (ion (formula + adduct): [C41H80NO8P+H] 1+)
TIMS collisional cross section (sample type: Liver): 282.2 Å² | TIMS collisional cross section (sample type: plasma): 282.1 Å²

CCCCC/C=C\C/C=C\CCCCCCCC(=O)OC[C@@H](COC(=O)CCCCCCC/C=C\CCCCC)OC(=O)CCCCCCC/C=C\CCCCCC [TG 15:1_16:1_18:2] (ion (formula + adduct): [C52H92O6+NH4] 1+)
TIMS collisional cross section (sample type: HeLa): 308.4 Å²

CCCCC/C=C\C/C=C\C/C=C\CCCCC(=O)OC[C@@H](COC(=O)CCCCCCCCCCCCCC)OC(=O)CCCCCCC/C=C\C/C=C\CCCCC [TG 15:0_18:2_18:3] (ion (formula + adduct): [C54H94O6+NH4] 1+)
TIMS collisional cross section (sample type: Liver): 312.7 Å² | TIMS collisional cross section (sample type: plasma): 312.8 Å²

CCCCC/C=C\C[C@H](O)/C=C/C=C\C/C=C\CCCC(=O)O[C@H](COC(=O)CCCCCCCCCCCCCCCCC)COP(=O)([O-])OCC[N+](C)(C)C [Oxidized PC 18:0@_20:4] (ion (formula + adduct): [C46H84NO9P+H] 1+)
TIMS collisional cross section (sample type: plasma): 297.15 ± 0.92 Å²

CCCCC/C=C\C/C=C\C/C=C\CCCCCCC(=O)O[C@H](CO/C=C\CCCCCCCCCCCCCCCC)COP(=O)(O)OCCN [PE P- 18:0@_20:3] (ion (formula + adduct): [C43H80NO7P+H] 1+)
TIMS collisional cross section (sample type: HeLa): 283.7 ± 0.71 Å² | TIMS collisional cross section (sample type: plasma): 282.7 Å²

CC/C=C\C/C=C\C/C=C\C/C=C\C/C=C\C/C=C\CCC(=O)OC[C@@H](COC(=O)CCCCCCCCCCCCCCC)OC(=O)CCCCCCCCCCCCCCCCCCCCC [TG 16:0_22:0_22:6] (ion (formula + adduct): [C63H110O6+NH4] 1+)
TIMS collisional cross section (sample type: Liver): 340.7 Å²

CC/C=C\C/C=C\C/C=C\C/C=C\C/C=C\CCCC(=O)O[C@@H](CO)COC(=O)CCCCCCC/C=C\CCCCCCCC [DG 18:1_20:5_0:0] (ion (formula + adduct): [C41H68O5+H] 1+)
TIMS collisional cross section (sample type: plasma): 271.1 Å²

CCCCC/C=C\CCCCCCCC(=O)OC[C@H](COC(=O)CCCCCCC/C=C\CCCCCC)OC(=O)CCCCCCCCCCCCCCC [TG 15:1_16:0_16:1] (ion (formula + adduct): [C50H92O6+NH4] 1+)
TIMS collisional cross section (sample type: Liver): 307.4 Å² | TIMS collisional cross section (sample type: plasma): 307.1 Å²

CCCCCC/C=C\CCCCCCCC(=O)OC[C@H](CO)OC(=O)CCCCCCC/C=C\CCCCCCCC [DG 16:1_18:1_0:0] (ion (formula + adduct): [C37H68O5+H] 1+)
TIMS collisional cross section (sample type: HeLa): 258.1 Å²

CCCC/C=C\CCCCCCCC(=O)OC[C@H](COC(=O)CCCCCCC/C=C\CCCCCC)OC(=O)CCCCCCC/C=C\CCCCCC [TG 14:1_16:1_16:1] (ion (formula + adduct): [C49H88O6+NH4] 1+)
TIMS collisional cross section (sample type: HeLa): 301.5 Å² | TIMS collisional cross section (sample type: Liver): 301.9 Å²

CCCCCCCC/C=C\CCCCCCCC(=O)O[C@H](CO/C=C\CCCCCCCCCCCCCC)COP(=O)([O-])OCC[N+](C)(C)C [PC P- 16:0@_18:1] (ion (formula + adduct): [C42H82NO7P+H] 1+)
TIMS collisional cross section (sample type: plasma): 287.7 Å²

CCCCC/C=C\C/C=C\C/C=C\C/C=C\CCCC(=O)OC[C@@H](COC(=O)CCCCCCCCCCCCC)OC(=O)CCCCCCC/C=C\CCCCCC [TG 14:0_16:1_20:4] (ion (formula + adduct): [C53H92O6+NH4] 1+)
TIMS collisional cross section (sample type: HeLa): 311 Å²

CCCCC/C=C\CCCCCCCC(=O)OC[C@H](COC(=O)CCCCCCC/C=C\CCCCCCC)OC(=O)CCCCCCC/C=C\CCCCCC [TG 15:1_16:1_17:1] (ion (formula + adduct): [C51H92O6+NH4] 1+)
TIMS collisional cross section (sample type: Liver): 308.7 Å²

CCCCCCCC/C=C\CCCCCCCC(=O)O[C@H](COC(=O)CCCCCCCCCCCCCCC)COC(=O)CCCCCCCCCCCCCCCCCCCCC [TG 16:0_18:1_22:0] (ion (formula + adduct): [C59H112O6+NH4] 1+)
TIMS collisional cross section (sample type: HeLa): 335.9 Å² | TIMS collisional cross section (sample type: Liver): 336.3 Å²

CC/C=C\C/C=C\C/C=C\C/C=C\C/C=C\CCCCCC(=O)OC[C@@H](COC(=O)CCCCCCCCCCCCC)OC(=O)CCCCCCCCCCCCCCC [TG 14:0_16:0_22:5] (ion (formula + adduct): [C55H96O6+NH4] 1+)
TIMS collisional cross section (sample type: HeLa): 318 Å²

CCC/C=C\CCCCCCCC/C=C/[C@@H](O)[C@H](COP(=O)([O-])OCC[N+](C)(C)C)NC(=O)CCCCCCCCCCCCC [SM d18:2_14:0@] (ion (formula + adduct): [C37H73N2O6P+H] 1+)
TIMS collisional cross section (sample type: HeLa): 275 Å²

CCCCCCC/C=C\CCCCCCCCC(=O)OC[C@H](COP(=O)([O-])OCC[N+](C)(C)C)OC(=O)CCCCCCCC/C=C\CCCCCCC [PC 18:1_18:1] (ion (formula + adduct): [C44H84NO8P+H] 1+)
TIMS collisional cross section (sample type: HeLa): 292.9 Å²

CCCCCC/C=C\CCCCCCCC(=O)OC[C@H](COC(=O)CCCCCCCCCCCCCCCCCCCCC)OC(=O)CCCCCCCCCCCCCCCCC [TG 16:1_18:0_22:0] (ion (formula + adduct): [C59H112O6+NH4] 1+)
TIMS collisional cross section (sample type: plasma): 335.9 Å²

CCCCCCCC/C=C\CCCCCCCC(=O)O[C@H](COC(=O)CCCCCCCCCCCCCCC)COP(=O)(O)OCCN [PE 16:0_18:1] (ion (formula + adduct): [C39H76NO8P+H] 1+)
TIMS collisional cross section (sample type: HeLa): 275.3 Å²

CCCCC/C=C\C/C=C\CCCCCCCC(=O)O[C@H](CO/C=C\CCCCCCCCCCCCCCCCCC)COP(=O)(O)OCCN [PE P- 20:0@_18:2] (ion (formula + adduct): [C43H82NO7P+H] 1+)
TIMS collisional cross section (sample type: plasma): 285 Å²

CCCCC/C=C\C/C=C\C/C=C\C/C=C\CCCC(=O)OC[C@H](COP(=O)(O)OCCN)OC(=O)CCCCCCCCCCCCCCCCCCC [PE 20:4_20:0] (ion (formula + adduct): [C45H82NO8P+H] 1+)
TIMS collisional cross section (sample type: Liver): 290.4 Å²

CCCCCCCC/C=C\CCCCCCCCCC(=O)O[C@H](COC(=O)CCCCCCC/C=C\CCCCCCCC)COC(=O)CCCCCCCCCCCCCCCCCCCC [TG 18:1_20:1_21:0] (ion (formula + adduct): [C62H116O6+NH4] 1+)
TIMS collisional cross section (sample type: Liver): 342.9 Å²
